Measurements reported in patent US6414138B1, “Process for producing mixtures rich in 1,6-GPS or 1,1-GPM” (Sudzucker Aktiengesellschaft, priority 1997, dated 2002).

Assay: Solubility of 1,1-GPM and 1,6-GPS in water / aqueous suspension
Assay type: physicochemical
Conditions: seed crystals mixed into concentrated aqueous solution of hydrogenated isomaltulose, about 50-65° C.
Experimental: Since the solubility equilibrium is temperature-dependent, the concentration ratio of the two components can advantageously be preset. After the solubility equilibrium is adjusted, the 1,1-GPM and 1,6-GPS concentration in the products can be controlled by setting the rate for the temperature change.
In another preferred embodiment of the invention, a suspension which is formed by the addition of, for example, crystalline hydrogenated isomaltulose in water, is heated to, for example, 85° C. to completely dissolve the solute, whereafter the cooling step to crystallize the solution is combined with a seeding step. The seeding step, however, is not essential. Advantageously, powdered hydrogenated isomaltulose in crystalline form or in the form of a suspension can be used. Most advantageously, the suspension is formed in water or in an organic solvent, such as isopropanol, and a food-compatible dispersing agent acting as a solvent can be added, if necessary. […]
The two constituents of hydrogenated isomaltulose, i.e. 1,1-GPM and 1,6-GPS, have a different solubility in aqueous solutions (FIG. 4). […] The 1,1-GPM component, which crystallizes more readily, is concentrated in the solid fraction of the suspension, whereas the 1,6-GPS component, which crystallizes less readily, goes preferentially into solution. […]

Structure (SMILES) | solubility (in words)
OC[C@@H](O)[C@@H](O)[C@H](O)[C@H](O)CO[C@H]1O[C@H](CO)[C@@H](O)[C@H](O)[C@H]1O [1,1-GPM, 1-0-α-D-Glucopyranosyl-D-mannite] | only slightly soluble
OC[C@H](O)[C@@H](O)[C@H](O)[C@H](O)CO[C@H]1O[C@H](CO)[C@@H](O)[C@H](O)[C@H]1O [1,6-GPS, 6-0-α-D-Glucopyranosyl-D-sorbite] | readily soluble
